In patent US8748625B2, “Crystalline forms of 3-[5-(2-fluorophenyl)-[1,2,4]oxadiazol-3-yl]-benzoic acid” (PTC Therapeutics, Inc., priority 2006, dated 2014):
Entries after “also recorded” stand apart in the source; their conditions may differ.

Assays:
Assay type in all cases: physicochemical
[1] = Physical stability under compression
[2] = Dynamic vapor sorption (DVS) hygroscopicity; details: for hygroscopicity: DVS isotherm
Experimental: Form A of 3-[5-(2-fluorophenyl)-[1,2,4]oxadiazol-3-yl]-benzoic acid was evaluated for hygroscopicity. Dynamic vapor sorption (DVS) analysis of moisture uptake and moisture release as a function of relative humidity (RH) were obtained upon cycling between 5% and 95% RH. […] Accordingly, in certain embodiments, Form A is non-hygroscopic.
Moisture sorption/desorption data were collected on a VTI SGA-100 Vapor Sorption Analyzer. Sorption and desorption data were collected over a range of 5% to 95% relative humidity (RH) at 10% RH intervals under a nitrogen purge. Samples were not dried prior to analysis. Equilibrium criteria used for analysis were less than 0.0100% weight change in 5 minutes, with a maximum equilibration time of 3 hours if the weight criterion was not met. Data were not corrected for the initial moisture content of the samples. NaCl and PVP were used as calibration standards.

[3] = Physical stability on slurrying in solvents
[4] = Physical stability on storage at controlled relative humidity; details: stored 6 days
Experimental: 3-[5-(2-fluorophenyl)-[1,2,4]oxadiazol-3-yl]-benzoic acid (UNMEASURED QUANTITY; FORM B) was stressed in 75% relative humidity at 40° C. for six days.

[5] = Physical stability on milling / micronization; details: for physical stability when milled: milled at ambient and at sub-ambient temperatures

SMILES | physical stability under compression ([1]; compression alone) | physical stability under compression ([1]; compression in the presence of a 1:1 mixture of t-BuOH and water) | hygroscopicity [2] | physical stability when slurried ([3]; 1 day at ambient temperature in a 1:1 mixture of THF and heptane) | physical stability when slurried ([3]; in a 1:1 mixture of dioxane and water) | physical stability when slurried ([3]; in methyl isobutyl ketone) | physical stability on storage ([4]; 50% RH at 60° C.) | physical stability on storage ([4]; 53% RH at 40° C.) | physical stability on storage ([4]; 75% RH at 40° C.) | physical stability on storage ([4]; 79% RH at 60° C.) | physical stability when milled [5] | maximum moisture uptake (DVS) ([2]; cycling between 5% and 95% RH) | physical stability when slurried ([3]; in 1-BuOH for 4 days at ambient temperature) | physical stability when slurried ([3]; in chloroform for 2 days at 50° C.) | physical stability when slurried ([3]; in dichloromethane for 2 days at 50° C.) | physical and chemical stability upon micronization ([5]; micronization (particle size reduction))
O=C(O)c1cccc(-c2noc(-c3ccccc3F)n2)c1 [Form B, 3-[5-(2-fluorophenyl)-[1,2,4]oxadiazol-3-yl]-benzoic acid] | physically stable | physically stable | substantially non-hygroscopic | physically stable | conversion of Form B to Form A | conversion of Form B to Form A | physically stable | physically stable | physically stable; also recorded: characterized by XRPD as Form B | partial conversion to Form A | conversion from Form B to Form A |  |  |  |  | 
O=C(O)c1cccc(-c2noc(-c3ccccc3F)n2)c1 [Form A, 3-[5-(2-fluorophenyl)-[1,2,4]oxadiazol-3-yl]-benzoic acid] |  |  | substantially non-hygroscopic |  |  |  | physically stable | physically stable | physically stable | physically stable | physically stable | about 0.06 % of the total mass of the sample | physically stable | physically stable | physically stable | physically and chemically stable
